How the values were obtained:
Format in all cases: physicochemical
[1] = 1-MCP release from polyvinyl alcohol (PVA) film containing 1-MCP/α-cyclodextrin complex in humid chamber; settings: for Concentration of 1-MCP: PVA film with 0.05 g complex, 36 liter high humidity chamber
Description: (§1) 1-MCP/α-cyclodextrin complex powder (0.05 grams) was heat sealed into a 2×3.5 inch piece of 1.5 mil thick M 7061 polyvinyl alcohol (PVA) film (Chris Craft Corp.) using a Sealmaster 420 (Audion Elektro) heat sealer. This film was placed into a 36 liter volume high humidity chamber. […] The 1-MCP release characteristics of the film versus time were determined by periodically analyzing the atmosphere in the chamber for 1-MCP. The analysis method was gas chromatography using a flame ionization detector.

[2] = 1-MCP release from low density polyethylene (LDPE) film containing 1-MCP/α-cyclodextrin complex in humid chamber; settings: for Concentration of 1-MCP: LDPE film with 0.05 g complex, 36 liter high humidity chamber
Description: as §1, with “1-MCP/α-CD” for “1-MCP/α-cyclodextrin”, “5.5×12” for “2×3.5”, “2.0” for “1.5”, “low density polyethylene (LDPE) film.” for “M 7061 polyvinyl alcohol (PVA) film (Chris Craft Corp.) using a Sealmaster 420 (Audion Elektro) heat sealer.”

[3] = 1-MCP release from waxy, cast (Parafilm M) film containing 1-MCP/α-cyclodextrin complex in humid chamber; settings: for Concentration of 1-MCP: waxy cast Parafilm M film with 0.5 g complex, 36 liter high humidity chamber
Description: Parafilm® “M” film (2.0 grams, American National Can Corp.) was dissolved/dispersed in 12 grams of hexane. 1-MCP/α-cyclodextrin complex powder (0.5 grams) was mixed into this suspension and then the whole mixture was poured into a 3.5 inch diameter glass crystallizing dish to dry. The dish was placed in a 50° C. oven for 5 hrs. to dry and the resulting cast film was removed from the dish. This film was placed into a 36 liter volume high humidity chamber being careful not to allow the film to contact any water directly. The 1-MCP release characteristics of the film versus time were determined by periodically analyzing the atmosphere in the chamber for 1-MCP. The analysis method was gas chromatography using a flame ionization detector.

[4] = 1-MCP release from high density polyethylene (HDPE) film exposed to 1-MCP gas, sealed jar; settings: for Concentration of 1-MCP: HDPE film exposed to 2206 ppm 1-MCP for 2 hours, sealed quart jar
Description: (§2) High density polyethylene (HDPE) film of 2 mil thickness measuring 4.5×2.75 inches was exposed to 2206 ppm 1-MCP (vol/vol) in the atmosphere of a sealed quart jar for 2 hours. The film was removed, allowed to stand in air for 5 minutes and then sealed in a fresh quart jar equipped with a sampling septum. The 1-MCP release characteristics of the film versus time were determined by periodically analyzing the atmosphere in the jar for 1-MCP. The analysis method was gas chromatography using a flame ionization detector.

[5] = 1-MCP release from wax paper exposed to 1-MCP gas, sealed jar; settings: for Concentration of 1-MCP: wax paper exposed to 2206 ppm 1-MCP for 5 hours, sealed quart jar
Description: as §2, with “Wax paper measuring” for “High density polyethylene (HDPE) film of 2 mil thickness measuring”, “for 5” for “for 2”

CC1=CC1 [Compound 1-MCP, 1-methylcyclopropene]
Concentration of 1-MCP ([1]; 0 min.): 0.0 ppm | Concentration of 1-MCP ([1]; 5 min.): 0.9 ppm | Concentration of 1-MCP ([1]; 25 min.): 2.2 ppm | Concentration of 1-MCP ([1]; 45 min.): 3.2 ppm | Concentration of 1-MCP ([1]; 90 min.): 6.0 ppm | Concentration of 1-MCP ([1]; 20 hr.): 17.0 ppm | 1-MCP release from the film (in words) ([1]; PVA film, high humidity chamber, no direct water contact): released from the PVA film just by the water provided by humidity | Concentration of 1-MCP ([2]; 0 min.): 0.0 ppm | Concentration of 1-MCP ([2]; 5 min.): 2.0 ppm | Concentration of 1-MCP ([2]; 20 min.): 7.7 ppm | Concentration of 1-MCP ([2]; 40 min.): 14.5 ppm | Concentration of 1-MCP ([2]; 60 min.): 19.0 ppm | 1-MCP release from the film (in words) ([2]; LDPE film, high humidity chamber, no direct water contact): released from the LDPE film just by the water provided by humidity | Concentration of 1-MCP ([3]; 0 min.): 0.0 ppm | Concentration of 1-MCP ([3]; 5 min.): 0.02 ppm | Concentration of 1-MCP ([3]; 20 min.): 0.1 ppm | Concentration of 1-MCP ([3]; 35 min.): 0.3 ppm | Concentration of 1-MCP ([3]; 60 min.): 0.8 ppm | Concentration of 1-MCP ([3]; 90 min.): 1.4 ppm | 1-MCP release from the film (in words) ([3]; waxy cast film, high humidity chamber, no direct water contact): released from the LDPE film just by the water provided by humidity | Concentration of 1-MCP ([4]; 0 sec.): 0.0 ppm | Concentration of 1-MCP ([4]; 0.5 min.): 3.0 ppm | Concentration of 1-MCP ([4]; 5 min.): 8.0 ppm | Concentration of 1-MCP ([4]; 15 min.): 9.6 ppm | Concentration of 1-MCP ([4]; 60 min.): 11.0 ppm | 1-MCP release from the film (in words) ([4]; HDPE film, sealed jar): significant release | Concentration of 1-MCP ([5]; 0 min.): 0.0 ppm | Concentration of 1-MCP ([5]; 0.5 min.): 0.3 ppm | Concentration of 1-MCP ([5]; 5 min.): 0.9 ppm | Concentration of 1-MCP ([5]; 15 min.): 0.9 ppm | Concentration of 1-MCP ([5]; 60 min.): 0.9 ppm | 1-MCP release from the film (in words) ([5]; wax paper, sealed jar): less release than Example 4, but still a significant amount

— patent publication US6548448B2, “Delivery systems for cyclopropenes” (Rohm and Haas Company, priority 2001, dated 2003)
